In US20250073340A1, “SPIROCYCLIC MDM2 MODULATOR AND USES THEREOF” (Newave Pharmaceutical Inc., priority 2021, published 2025):

What was measured:
[1] = target: MDM2 (Homo sapiens (Human), UniProt Q00987); experiment: In vitro MDM2 HTRF assay (inhibition of p53-MDM2 interaction); type: binding; settings: GST-MDM2 / biotinylated p53 peptide
[2] = system: BCL-2-dependent acute lymphoblastic leukemia (ALL) cell line RS4;11 overexpressing Bcl-2 G101V; experiment: cells; type: cell-based; settings: Homo sapiens, RS4-11; about 72 hours, ATPlite luminescence; read-out: RS4;11-G101V IC50
Experimental: Biological Example 2: In vitro Anti-proliferation Assay in BCL-2-dependent acute lymphoblastic leukemia (ALL) cell line RS4; 11 overexpressing Bcl-2 G101V
Cell antiproliferation was assayed by PerkinElmer ATPlite™ Luminescence Assay System. Briefly, the various test cancer cell lines were plated at a density of about 1×10^4 cells per well in Costar 96-well plates, and were incubated with different concentrations of compounds for about 72 hours in medium supplemented with 5% FBS or 10% normal human serum (NHS). One lyophilized substrate solution vial was then reconstituted by adding 5 mL of substrate buffer solution, and was agitated gently until the solution was homogeneous. About 50 μL of mammalian cell lysis solution was added to 100 μL of cell suspension per well of a microplate, and the plate was shaken for about five minutes in an orbital shaker at −700 rpm. This procedure was used to lyse the cells and to stabilize the ATP. Next, 50 μL substrate solution was added to the wells and microplate was shaken for five minutes in an orbital shaker at −700 rpm. Finally, the luminescence was measured by a PerkinElmer TopCount® Microplate Scintillation Counter. Such assays, carried out with a range of doses of test compounds, allowed the determination of the cellular anti-antiproliferative IC50 of the compounds of the present invention.

MDM2, sequence (Q00987 whole entry): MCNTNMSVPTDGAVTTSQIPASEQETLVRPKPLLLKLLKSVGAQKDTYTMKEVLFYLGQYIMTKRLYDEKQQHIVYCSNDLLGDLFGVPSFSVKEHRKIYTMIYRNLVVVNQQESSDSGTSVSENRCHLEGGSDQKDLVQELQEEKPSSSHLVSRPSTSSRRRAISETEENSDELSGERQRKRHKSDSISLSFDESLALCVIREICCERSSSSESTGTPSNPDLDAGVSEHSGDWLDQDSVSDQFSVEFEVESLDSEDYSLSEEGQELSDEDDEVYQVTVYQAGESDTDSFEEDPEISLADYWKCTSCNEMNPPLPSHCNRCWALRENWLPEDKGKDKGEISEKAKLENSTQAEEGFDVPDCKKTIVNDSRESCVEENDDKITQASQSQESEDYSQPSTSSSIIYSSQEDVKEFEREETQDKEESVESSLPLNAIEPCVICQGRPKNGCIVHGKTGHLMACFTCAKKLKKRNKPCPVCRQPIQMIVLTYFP

Compound	IC50 [1]	IC50 [2]
COc1cc(C(=O)N2CCC(C#Cc3cccc4c3CN(C3CCC(=O)NC3=O)C4=O)CC2)ccc1NC(=O)[C@@H]1N[C@@H](CC(C)(C)C)[C@@]2(CNc3cc(Cl)ccc32)[C@H]1c1cccc(Cl)c1F (stereo partly drawn) [Example 20, (2′S,3S,4′S,5′R)-6-chloro-4′-(3-chloro-2-fluorophenyl)-2′-(2,2-dimethylpropyl)-N-[4-(4-{2-[2-(2,6-dioxopiperidin-3-yl)-1-oxo-3H-isoindol-4-yl]ethynyl}piperidine-1-carbonyl)-2-methoxyphenyl]-1,2-dihydrospiro[indole-3,3′-pyrrolidine]-5′-carboxamide]	3.67 nM	31.9 nM
COc1cc(C(=O)N2CCC[C@@H](CC#Cc3cccc4c3CN(C3CCC(=O)NC3=O)C4=O)C2)ccc1NC(=O)[C@@H]1N[C@@H](CC(C)(C)C)[C@@]2(CNc3cc(Cl)ccc32)[C@H]1c1cccc(Cl)c1F (stereo partly drawn) [Example 25, (2′S,3S,4′S,5′R)-6-chloro-4′-(3-chloro-2-fluorophenyl)-N-(4-((3S)-3-(3-(2-(2,6-dioxopiperidin-3-yl)-1-oxoisoindolin-4-yl)prop-2-yn-1-yl)piperidine-1-carbonyl)-2-methoxyphenyl)-2′-neopentylspiro[indoline-3,3′-pyrrolidine]-5′-carboxamide]	3.72 nM	21.6 nM
COc1cc(C(=O)N2CCC3(CC2)C[C@H]3C#Cc2cccc3c2CN(C2CCC(=O)NC2=O)C3=O)ccc1NC(=O)[C@@H]1N[C@@H](CC(C)(C)C)[C@@]2(CNc3cc(Cl)ccc32)[C@H]1c1cccc(Cl)c1F (stereo partly drawn) [Example 43, (2′S,3S,4′S,5′R)-6-chloro-4′-(3-chloro-2-fluorophenyl)-2′-(2,2-dimethylpropyl)-N-{4-[(1R)-1-{2-[2-(2,6-dioxopiperidin-3-yl)-1-oxo-3H-isoindol-4-yl]ethynyl}-6-azaspiro[2.5]octane-6-carbonyl]-2-methoxyphenyl}-1,2-dihydrospiro[indole-3,3′-pyrrolidine]-5′-carboxamide]	4.67 nM	28.3 nM
COc1cc(N2CCC([C@@H]3C[C@H]3C#Cc3cccc4c3CN(C3CCC(=O)NC3=O)C4=O)CC2)ccc1NC(=O)[C@@H]1N[C@@H](CC(C)(C)C)[C@@]2(CNc3cc(Cl)ccc32)[C@H]1c1cccc(Cl)c1F (stereo partly drawn) [Example 26, (2′S,3S,4′S,5′R)-6-chloro-4′-(3-chloro-2-fluorophenyl)-2′-(2,2-dimethylpropyl)-N-(4-{4-[(1S,2R)-2-{2-[2-(2,6-dioxopiperidin-3-yl)-1-oxo-3H-isoindol-4-yl]ethynyl}cyclopropyl]piperidin-1-yl}-2-methoxyphenyl)-1,2-dihydrospiro[indole-3,3′-pyrrolidine]-5′-carboxamide]	46.8 nM	448 nM
COc1cc(C(=O)N2CCC[C@H](CC#Cc3cccc4c3CN(C3CCC(=O)NC3=O)C4=O)C2)ccc1NC(=O)[C@@H]1N[C@@H](CC(C)(C)C)[C@@]2(CNc3cc(Cl)ccc32)[C@H]1c1cccc(Cl)c1F (stereo partly drawn) [Example 24, (2′S,3S,4′S,5′R)-6-chloro-4′-(3-chloro-2-fluorophenyl)-N-(4-((3R)-3-(3-(2-(2,6-dioxopiperidin-3-yl)-1-oxoisoindolin-4-yl)prop-2-yn-1-yl)piperidine-1-carbonyl)-2-methoxyphenyl)-2′-neopentylspiro[indoline-3,3′-pyrrolidine]-5′-carboxamide]	2.97 nM	21.1 nM
COc1cc(C(=O)N2CCN(CC#Cc3cccc4c3CN(C3CCC(=O)NC3=O)C4=O)CC2)ccc1NC(=O)[C@@H]1N[C@@H](CC(C)(C)C)[C@@]2(CNc3cc(Cl)ccc32)[C@H]1c1cccc(Cl)c1F (stereo partly drawn) [Example 51, (2′S,3S,4′S,5′R)-6-chloro-4′-(3-chloro-2-fluorophenyl)-2′-(2,2-dimethylpropyl)-N-[4-(4-{3-[2-(2,6-dioxopiperidin-3-yl)-1-oxo-3H-isoindol-4-yl]prop-2-yn-1-yl}piperazine-1-carbonyl)-2-methoxyphenyl]-1,2-dihydrospiro[indole-3,3′-pyrrolidine]-5′-carboxamide]	1.42 nM	18.3 nM
COc1cc(C(=O)N2CCC3(CC2)CC(C#Cc2cccc4c2CN(C2CCC(=O)NC2=O)C4=O)C3)ccc1NC(=O)[C@@H]1N[C@@H](CC(C)(C)C)[C@@]2(CNc3cc(Cl)ccc32)[C@H]1c1cccc(Cl)c1F (stereo partly drawn) [Example 42, (2′S,3S,4′S,5′R)-6-chloro-4′-(3-chloro-2-fluorophenyl)-N-(4-(2-((2-(2,6-dioxopiperidin-3-yl)-1-oxoisoindolin-4-yl)ethynyl)-7-azaspiro[3.5]nonane-7-carbonyl)-2-methoxyphenyl)-2′-neopentylspiro[indoline-3,3′-pyrrolidine]-5′-carboxamide]	4.51 nM	99.1 nM
COc1cc(C(=O)N2CCCC[C@H]2CCC#Cc2cccc3c2CN([C@H]2CCC(=O)NC2=O)C3=O)ccc1NC(=O)[C@@H]1N[C@@H](CC(C)(C)C)[C@@]2(CNc3cc(Cl)ccc32)[C@H]1c1cccc(Cl)c1F [Example 39, (2′S,3S,4′S,5′R)-6-chloro-4′-(3-chloro-2-fluorophenyl)-2′-(2,2-dimethylpropyl)-N-{4-[(2S)-2-(4-{2-[(3S)-2,6-dioxopiperidin-3-yl]-1-oxo-3H-isoindol-4-yl}but-3-yn-1-yl)piperidine-1-carbonyl]-2-methoxyphenyl}-1,2-dihydrospiro[indole-3,3′-pyrrolidine]-5′-carboxamide]	2.67 nM	127 nM
COc1cc(N2CCC([C@H]3C[C@@H]3C#Cc3cccc4c3CN(C3CCC(=O)NC3=O)C4=O)CC2)ccc1NC(=O)[C@@H]1N[C@@H](CC(C)(C)C)[C@@]2(CNc3cc(Cl)ccc32)[C@H]1c1cccc(Cl)c1F (stereo partly drawn) [Example 27, (2′S,3S,4′S,5′R)-6-chloro-4′-(3-chloro-2-fluorophenyl)-2′-(2,2-dimethylpropyl)-N-(4-{4-[(1R,2S)-2-{2-[2-(2,6-dioxopiperidin-3-yl)-1-oxo-3H-isoindol-4-yl]ethynyl}cyclopropyl]piperidin-1-yl}-2-methoxyphenyl)-1,2-dihydrospiro[indole-3,3′-pyrrolidine]-5′-carboxamide]	16.5 nM	> 1000 nM
COc1cc(C(=O)N2CCCC[C@@H]2CCC#Cc2cccc3c2CN([C@H]2CCC(=O)NC2=O)C3=O)ccc1NC(=O)[C@@H]1N[C@@H](CC(C)(C)C)[C@@]2(CNc3cc(Cl)ccc32)[C@H]1c1cccc(Cl)c1F [Example 37, (2′S,3S,4′S,5′R)-6-chloro-4′-(3-chloro-2-fluorophenyl)-2′-(2,2-dimethylpropyl)-N-{4-[(2R)-2-(4-{2-[(3S)-2,6-dioxopiperidin-3-yl]-1-oxo-3H-isoindol-4-yl}but-3-yn-1-yl)piperidine-1-carbonyl]-2-methoxyphenyl}-1,2-dihydrospiro[indole-3,3′-pyrrolidine]-5′-carboxamide]	1.95 nM	34.4 nM
CC(C)(C)C[C@@H]1N[C@@H](C(=O)N2CCOc3cc(C(N)=O)ccc32)[C@H](c2cccc(Cl)c2F)[C@]12CNc1cc(Cl)ccc12 [Example 14, 4-((2′S,3S,4′S,5′R)-6-chloro-4′-(3-chloro-2-fluorophenyl)-2′-neopentylspiro[indoline-3,3′-pyrrolidine]-5′-carbonyl)-3,4-dihydro-2H-benzo[b][1,4]oxazine-7-carboxamide]	114 nM	> 1000 nM
COc1cc(C(=O)N[C@@H]2CCC[C@H](C#Cc3cccc4c3CN(C3CCC(=O)NC3=O)C4=O)C2)ccc1NC(=O)[C@@H]1N[C@@H](CC(C)(C)C)[C@@]2(CNc3cc(Cl)ccc32)[C@H]1c1cccc(Cl)c1F (stereo partly drawn) [Example 33, (2′S,3S,4′S,5′R)-6-chloro-4′-(3-chloro-2-fluorophenyl)-2′-(2,2-dimethylpropyl)-N-(4-{[(1R,3S)-3-{2-[2-(2,6-dioxopiperidin-3-yl)-1-oxo-3H-isoindol-4-yl]ethynyl}cyclohexyl]carbamoyl}-2-methoxyphenyl)-1,2-dihydrospiro[indole-3,3′-pyrrolidine]-5′-carboxamide]	2.29 nM	104 nM
COc1cc(C(N)=O)ccc1NC(=O)[C@@H]1N[C@@H](CC(C)(C)C)[C@@]2(CNc3cc(Cl)ncc32)[C@H]1c1cccc(Cl)c1F [Example 9, (2S,3S,4S,5R)—N-(4-carbamoyl-2-methoxyphenyl)-6′-chloro-4-(3-chloro-2-fluorophenyl)-2-(2,2-dimethylpropyl)-1′,2′-dihydrospiro[pyrrolidine-3,3′-pyrrolo[3,2-c]pyridine]-5-carboxamide]	0.58 nM	11 nM
COc1cc(C(=O)NCCCC#Cc2cccc3c2CN([C@@H]2CCC(=O)NC2=O)C3=O)ccc1NC(=O)[C@@H]1N[C@@H](CC(C)(C)C)[C@@]2(CNc3cc(Cl)ccc32)[C@H]1c1cccc(Cl)c1F [Example 17, (2′S,3S,4′S,5′R)-6-chloro-4′-(3-chloro-2-fluorophenyl)-N-(4-((5-(2-((R)-2,6-dioxopiperidin-3-yl)-1-oxoisoindolin-4-yl)pent-4-yn-1-yl)carbamoyl)-2-methoxyphenyl)-2′-neopentylspiro[indoline-3,3′-pyrrolidine]-5′-carboxamide]	1.36 nM	3.82 nM
